Measurements from the supplement of paper PMC8967900.

Key:
Test in all cases: selective drug sensitivity score (sDSS, relative to normal bone marrow) (sDSS (score)); higher = more potent and effective on the cell line relative to normal bone marrow cells
Settings in all cases: 72 h
CCRF-HSB2 = tested on: CCRF-HSB2
CCRF-CEM = tested on: CCRF-CEM
RPMI-8402 = tested on: RPMI-8402
KASUMI-10 = tested on: KASUMI-10
PF-382 = tested on: PF-382
HAL-01 = tested on: HAL-01
MHH-CALL-2 = tested on: MHH-CALL-2
REH = tested on: REH
MN-60 = tested on: MN-60
NALM-16 = tested on: NALM-16
COG-LL-402h = tested on: COG-LL-402h
RCH-ACV = tested on: RCH-ACV
MOLT-16 = tested on: MOLT-16
MHH-CALL-3 = tested on: MHH-CALL-3
COG-LL-319h = tested on: COG-LL-319h
KASUMI-9 = tested on: KASUMI-9
P30-OHKUBO = tested on: P30-OHKUBO
SUP-B15 = tested on: SUP-B15
380 = tested on: 380
COG-LL-394h = tested on: COG-LL-394h
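Further: ALL cell lines in 384-well plates, five doses spanning 10,000-fold, each plate scaled between vehicle and 100 µmol/L benzalkonium chloride controls, sDSS an adapted area-under-curve metric.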

`CNC(=O)c1cc(COc2nnc(Nc3ccc(Cl)cc3)c3ccoc23)ccn1` [Telatinib] (top concentration 10000 nM) was tested, and the “selective drug sensitivity score” value (CCRF-HSB2) was 0, the “selective drug sensitivity score” value (CCRF-CEM) was 0 and the “selective drug sensitivity score” value (RPMI-8402) was 0. For the same molecule, the “selective drug sensitivity score” value (KASUMI-10) was 0, the “selective drug sensitivity score” value (PF-382) was 0 and the “selective drug sensitivity score” value (HAL-01) was 1.8. For the same molecule, the “selective drug sensitivity score” value (MHH-CALL-2) was 0.4, the “selective drug sensitivity score” value (REH) was 2.6 and the “selective drug sensitivity score” value (MN-60) was 0. The “selective drug sensitivity score” value (NALM-16) was 0, the “selective drug sensitivity score” value (COG-LL-402h) was 0 and the “selective drug sensitivity score” value (RCH-ACV) was 0.2. For the same molecule, the “selective drug sensitivity score” value (MOLT-16) was 0, the “selective drug sensitivity score” value (MHH-CALL-3) was 0 and the “selective drug sensitivity score” value (COG-LL-319h) was 0. The “selective drug sensitivity score” value (KASUMI-9) was 1, the “selective drug sensitivity score” value (P30-OHKUBO) was 2.9 and the “selective drug sensitivity score” value (SUP-B15) was 0. The “selective drug sensitivity score” value 380 was 0 and the “selective drug sensitivity score” value (COG-LL-394h) was 0.

For `O=c1sn(-c2cccc3ccccc23)c(=O)n1Cc1ccccc1` [Tideglusib] (top concentration 3000 nM), the “selective drug sensitivity score” value (CCRF-HSB2) was -0.3, the “selective drug sensitivity score” value (CCRF-CEM) was -0.3 and the “selective drug sensitivity score” value (RPMI-8402) was -0.3. The “selective drug sensitivity score” value (KASUMI-10) was 0.3, the “selective drug sensitivity score” value (PF-382) was -0.3 and the “selective drug sensitivity score” value (HAL-01) was -0.3. For the same molecule, the “selective drug sensitivity score” value (MHH-CALL-2) was 0.5, the “selective drug sensitivity score” value (REH) was 0.4 and the “selective drug sensitivity score” value (MN-60) was -0.3. For the same molecule, the “selective drug sensitivity score” value (NALM-16) was -0.3, the “selective drug sensitivity score” value (COG-LL-402h) was -0.3 and the “selective drug sensitivity score” value (RCH-ACV) was -0.3. For the same molecule, the “selective drug sensitivity score” value (MOLT-16) was -0.3, the “selective drug sensitivity score” value (MHH-CALL-3) was -0.3 and the “selective drug sensitivity score” value (COG-LL-319h) was -0.3. For the same molecule, the “selective drug sensitivity score” value (KASUMI-9) was -0.3, the “selective drug sensitivity score” value (P30-OHKUBO) was -0.3 and the “selective drug sensitivity score” value (SUP-B15) was -0.3. For the same molecule, the “selective drug sensitivity score” value 380 was -0.3 and the “selective drug sensitivity score” value (COG-LL-394h) was -0.3.

For `COc1cc2nccc(Oc3ccc(NC(=O)Nc4cc(C)on4)c(Cl)c3)c2cc1OC` [Tivozanib] (top concentration 10000 nM), the “selective drug sensitivity score” value (CCRF-HSB2) was 17.9, the “selective drug sensitivity score” value (CCRF-CEM) was 1.26 and the “selective drug sensitivity score” value (RPMI-8402) was 1.76. The “selective drug sensitivity score” value (KASUMI-10) was 2.96, the “selective drug sensitivity score” value (PF-382) was 1.36 and the “selective drug sensitivity score” value (HAL-01) was -0.74. The “selective drug sensitivity score” value (MHH-CALL-2) was -0.34, the “selective drug sensitivity score” value (REH) was 0.36 and the “selective drug sensitivity score” value (MN-60) was 0.66. For the same molecule, the “selective drug sensitivity score” value (NALM-16) was -3.44, the “selective drug sensitivity score” value (COG-LL-402h) was 3.96 and the “selective drug sensitivity score” value (RCH-ACV) was 10.9. For the same molecule, the “selective drug sensitivity score” value (MOLT-16) was 3.66, the “selective drug sensitivity score” value (MHH-CALL-3) was -3.64 and the “selective drug sensitivity score” value (COG-LL-319h) was 12.6. For the same molecule, the “selective drug sensitivity score” value (KASUMI-9) was 2.46, the “selective drug sensitivity score” value (P30-OHKUBO) was 4.56 and the “selective drug sensitivity score” value (SUP-B15) was 21.7. For the same molecule, the “selective drug sensitivity score” value 380 was -3.64 and the “selective drug sensitivity score” value (COG-LL-394h) was 1.46.

`Cc1cc(Nc2cc(N3CCN(C)CC3)nc(Sc3ccc(NC(=O)C4CC4)cc3)n2)n[nH]1` [Tozasertib] (top concentration 10000 nM) was tested, and the “selective drug sensitivity score” value (CCRF-HSB2) was 21.9, the “selective drug sensitivity score” value (CCRF-CEM) was 21.6 and the “selective drug sensitivity score” value (RPMI-8402) was 4.56. For the same molecule, the “selective drug sensitivity score” value (KASUMI-10) was 15.6, the “selective drug sensitivity score” value (PF-382) was 7.06 and the “selective drug sensitivity score” value (HAL-01) was 8.36. For the same molecule, the “selective drug sensitivity score” value (MHH-CALL-2) was 11, the “selective drug sensitivity score” value (REH) was 21.2 and the “selective drug sensitivity score” value (MN-60) was -0.74. The “selective drug sensitivity score” value (NALM-16) was -0.34, the “selective drug sensitivity score” value (COG-LL-402h) was 15.4 and the “selective drug sensitivity score” value (RCH-ACV) was 17.9. The “selective drug sensitivity score” value (MOLT-16) was 22.7, the “selective drug sensitivity score” value (MHH-CALL-3) was 9.66 and the “selective drug sensitivity score” value (COG-LL-319h) was 19.2. The “selective drug sensitivity score” value (KASUMI-9) was 18.4, the “selective drug sensitivity score” value (P30-OHKUBO) was 22.2 and the “selective drug sensitivity score” value (SUP-B15) was 19.1. For the same molecule, the “selective drug sensitivity score” value 380 was 19.2 and the “selective drug sensitivity score” value (COG-LL-394h) was 3.36.
